Test results taken from publication PMC11641365, “Evaluation of In Vitro Biological Activity of Flavanone/Chromanone Derivatives: Molecular Analysis of Anticancer Mechanisms in Colorectal Cancer” (International Journal of Molecular Sciences, 2024).

Assays:
Assay type in all cases: cell-based, human
HMEC-1 = test: MTT cell viability assay, model of normal cells; conditions: difference of IC50 values
Experimental: The cytotoxic activity of the 3-benzylideneflavanones, 3-benzylidenechromanones derivatives (compounds 1, 2, 3, 4, 5) and 5′-(3-methoxyphenyl)-2-phenyl-4′,5′-dihydro-4H-spiro[chromano-3,3′-pirazol]-4-one (compound 3a) was evaluated using the MTT assay (4,5-dimethylthiazol-2-yl)-2,5-diphenyltetrazoliumbromide), a colorimetric method that quantifies cell viability.
Cell viability was determined using the metabolic microplate spectrophotometric assay with Methylthiazolyl diphenyltetrazolium bromide (MTT) (Sigma-Aldrich; St. Louis, MO, USA). The MTT method belongs to metabolic tests for determining cell viability and consists of measuring the absorbance of a violet solution of formazan, a product of the reduction of a water-soluble yellow MTT by oxidoreductive enzymes (mainly mitochondrial succinate dehydrogenase) of living cells. […]
The appropriate number of cells for a given cell line (6–8 × 10^3 cells/mL) were seeded onto colorless, sterile 96-well microplates (Nunc, Roskilde, Denmark) in the number appropriate for a given cell line. […] The absorbance of the formazan solution, after gentle mixing, was read at a wavelength of λ = 580 nm and a reference wavelength of λ = 720 nm (Biotek Power Wave HT, Biotek Instruments, Winooski, VT, USA). […] The absorbance of the control was taken as 100%.

HT-29 = test: Hydrogen peroxide level, H2DCFDA probe; conditions: compound at IC50, 24 h, vs control
Experimental: Cellular H2O2 levels were assessed using 2′,7′-dichlorodihydrofluorescein diacetate (H2DCFDA, Sigma-Aldrich, St. Louis, MO, USA), a well-established fluorogenic probe for intracellular hydrogen peroxide detection. H2DCFDA readily diffuses across the cell membrane and is subsequently hydrolyzed by intracellular esterases to non-fluorescent H2DCF. Oxidation of H2DCF by ROS generates highly fluorescent 2′,7′-dichlorofluorescein (DCF), which accumulates in the cytosol. […] The fluorescence intensity of DCF is directly proportional to the concentration of ROS within the cell.
Cells were seeded in black 96-well fluorometric microplates at a density of 10 × 10^3 cells/mL. […] Following compound incubation, the medium was removed, and the cell monolayers were washed twice with HBSS (140 mM NaCl, 5 mM KCl, 0.8 mM MgCl2, 1.8 mM CaCl2, 1 mM Na2HPO4, 10 mM HEPES, and 1% glucose). A volume of 50 µL of H2DCFDA solution in HBSS (final concentration 5 μM) was added to each well, and the cells were incubated for 30 min in the dark at 37 °C. After incubation with the H2DCFDA, fluorescence measurements were conducted using a Perkin-Elmer LS-5B spectrofluorometer (MA, USA) at the following excitation and fluorescence emission wavelengths: λex = 498 nm/λem = 522 nm. The fluorescence intensity of control cells was arbitrarily assigned a value of 100%. The results were expressed as percentages of control, calculated by comparing the fluorescence intensity ratio of the test samples to controls (100%). The fluorescence of samples was denoted as Δf in relation to the control.

LoVo = test: Mitochondrial membrane potential (ΔΨm), JC-1 probe; conditions: compound at IC50, vs control
From the text: (§1) Changes in mitochondrial potential in cancer cells exposed to the tested derivatives were monitored using the fluorescent probe JC-1. In non-apoptotic cells, JC-1 aggregates emit red-orange fluorescence. During changes in mitochondrial membrane potential, such as those associated with the initiation of PCD stages (both hyperpolarization and depolarization of mitochondrial membranes), JC-1 is converted to monomers, emitting green fluorescence.
(§2) 5,5,6,6-Tetrachloro-1,1,3,3-tetraethylbenzimidazolylcarbocyanine iodide (JC-1) is one of the most reliable fluorescent probes used to assess changes in mitochondrial membrane potential (ΔΨ). In living cells with intact mitochondrial membranes, the lipophilic, cationic dye JC-1 penetrates the negatively charged mitochondrial matrix as a monomer, where it forms fluorescent aggregates with red-orange fluorescence (λex = 514 nm, λem = 590). […] The fluorescence ratio of aggregates (λem = 590 nm) and monomers (λem = 529 nm)—590 nm/529 nm—reflects the level of damage to the mitochondrial membrane.
(§3) Cells were seeded in black 96-well fluorometric microplates at a density of 10 × 10^3 cells/mL. […] Following treatment, the medium was removed, and the cell monolayers were washed twice with HBSS (140 mM NaCl, 5 mM KCl, 0.8 mM MgCl2, 1.8 mM CaCl2, 1 mM Na2HPO4, 10 mM HEPES, and 1% glucose). Then, 50 μL of a JC-1 solution in HBSS was added to each well, and the cells were incubated for 30 min in the dark at 37 °C (final JC-1 concentration 5 μM). After removing the fluorescent dye and replacing it with fresh HBSS, fluorescence measurements were taken using a Perkin-Elmer LS-5B spectrofluorometer (Perkin-Elmer LS-5B spectrofluorometer, Waltham, MA, USA). The excitation and emission wavelengths for JC-1 monomers were 514 nm and 529 nm, respectively, while for aggregates, they were 514 nm and 590 nm. The results were expressed as a percentage change in the fluorescence ratio of JC-1 aggregates to JC-1 monomers compared to the control, which was set at 100%.

Caco-2 = test: Mitochondrial membrane potential (ΔΨm), JC-1 probe; conditions: compound at IC50, vs control
From the text: as §1, §2, §3

HCT 116 = test: Mitochondrial membrane potential (ΔΨm), JC-1 probe; conditions: compound at IC50, vs control
From the text: as §1, §2, §3

| Compound | IC50 against HMEC-1 higher than for the majority of tested cancer cell lines (selectivity) (HMEC-1) | Increase in H2O2 levels (HT-29) | Decrease in ΔΨm (depolarization) (LoVo) | Decrease in ΔΨm (depolarization) (Caco-2) | Change in mitochondrial membrane potential ΔΨm (HCT 116) |
| --- | --- | --- | --- | --- | --- |
| O=C1/C(=C/c2ccccc2)COc2ccccc21 [Compound 1] | approximately 10 µM | approximately 25% | ~ 20% | ~ 30% | no statistically significant changes |
| O=C1/C(=C/c2ccccc2)C(c2ccccc2)Oc2ccccc21 (stereo not drawn) [Compound 5] |  | around 15% |  |  |  |
